Results: patent US9439430B2, “Method of controlling resistant harmful plants” (priority 2012, dated 2016)

What was measured:
BRODI [1] = experiment: Greenhouse test, pre-emergence (PE) soil application; format: in vivo, Bromus diformis; set-up: key: % effect: 0 = no effect, 100 = full effect vs untreated
Text: (§1) The 1:1 mixture of the two soil types was used specifically for cultivating small-seeded dicotyledonous weed since the standard field soil on its own tends to silt up, which may have an adverse effect on the emergence of small-seeded weeds. The resistances mentioned in the tables were confirmed beforehand in standard monitoring experiments. Nevertheless, the origins examined may have additional, hitherto unconfirmed resistances to various mechanisms of action.
(§2) The pots were then cultivated in a greenhouse (12-16 h light, temperature day 20-22° C., night 15-18° C.) until the time of application. The pots were treated at various BBCH stages of the seeds/plants on a laboratory track sprayer with spray liquors comprising the compositions according to the invention, mixtures of the prior art or the individual components. Application of the active compounds or active compound combinations and wetting agents formulated as WG, WP, EC or otherwise was carried out at the appropriate growth stages of the plants. The amount of water used for spray application was 100-600 l/ha. After the treatment, the plants were returned to the greenhouses and fertilized and watered as required. The pots were cultivated in a greenhouse (12-16 h light, temperature day 20-22° C., night 15-18° C.).
(§3) 3 weeks after the application, the foliar effect was evaluated on a scale of 0-100%:
(§4) 0%=no noticeable effect compared to untreated plants
(§5) 100%=full effect compared to untreated plants
(§6) The following abbreviations were used: • BBCH the BBCH code provides information about the morphological development stage of a plant. Officially, the abbreviation denotes the Biologische Bundesanstalt, Bundessortenamt and CHemische Industrie [Federal Biological Institute for Agriculture and Forestry, Federal Office for Crop Plant Varieties, Chemical Industry]. The range of BBCH 00-10 denotes the germination stages of the seeds until surface penetration. The range of BBCH 11-25 denotes the leaf development stages until stocking (corresponds to the number of tillers or side-shoots). • PE pre-emergence soil application; BBCH of the seeds/plants 00-10 • PO post-emergence application on the green parts of the plants; BBCH of the plants 11-25 • IU soil loamy silt—standard field soil • l/ha liters per hectare • S sensitive—the weed populations are sensitive to the active compounds tested • TSR target-site resistance. The weed populations comprise biotypes having a site-of-action-specific resistance, i.e. the binding site at the site of action is modified as a result of natural mutations in the gene sequence so that the active compounds are no longer able to bind, or bind in an unsatisfactory manner, and are therefore no longer able to act. • NTR non-target-site herbicide resistance; this is differentiated, inter alia, into EMR (Enhanced Metabolic Resistance) (the weed populations comprise biotypes having metabolic resistance, i.e. the plants are capable of metabolizing the active compounds more quickly via enzyme complexes, i.e. the active compounds are degraded more quickly in the plant), into reduced penetration into the plant, reduced translocation in the plant, accelerated excretion. […]

EPHHL [2] = experiment: as above; format: in vivo, Euphorbia heterophylla; set-up: key: % effect: 0 = no effect, 100 = full effect vs untreated
Text: as §1, §2, §3, §4, §5, §6

BRODI [3] = experiment: Greenhouse test, post-emergence (PO) application, foliar effect; format: in vivo, Bromus diformis; details: (A) 50, (B) 20, mixture 50 + 20 g of AS/ha, 3 weeks after application
Text: as §1, §2, §3, §4, §5, §6

ERIBO = experiment: Greenhouse test, pre-emergence (PE) soil application; format: in vivo, Erigeron bonariensis; set-up: key: % effect: 0 = no effect, 100 = full effect vs untreated
Text: as §1, §2, §3, §4, §5, §6

[4] = system: TTTTT (all resistant and sensitive biotypes); experiment: Greenhouse test, PO application, mean over all resistant and sensitive biotypes; format: in vivo; details: (A) 50, (B) 20, mixture 50 + 20 g of AS/ha; for TTTTT resistant mean (effect): mean of resistant biotypes (n = 17 or n = 15); for TTTTT sensitive mean (effect): mean of sensitive biotypes (n = 11)
Text: as §1, §2, §3, §4, §5, §6

AMATA [5] = experiment: Greenhouse test, pre-emergence (PE) soil application; format: in vivo, Amaranthus rudis; set-up: key: % effect: 0 = no effect, 100 = full effect vs untreated
Text: as §1, §2, §3, §4, §5, §6

AMAPA = experiment: Greenhouse test, post-emergence (PO) application, foliar effect; format: in vivo, Amaranthus palmeri; details: AMAPA resistant - group B (TSR), C1 (TSR) and G (NTR), (A) 50, (B) 20, mixture 50 + 20 g of AS/ha, 3 weeks after application
Text: as §1, §2, §3, §4, §5, §6

LOLSS = experiment: Greenhouse test, pre-emergence (PE) soil application; format: in vivo, Lolium spp.; set-up: key: % effect: 0 = no effect, 100 = full effect vs untreated plants
Text: as §1, §2, §3, §4, §5, §6

AMATA [6] = experiment: Greenhouse test, post-emergence (PO) application, foliar effect; format: in vivo, Amaranthus rudis; details: (A) 50, (B) 20, mixture 50 + 20 g of AS/ha, 3 weeks after application
Text: as §1, §2, §3, §4, §5, §6

[7] = system: TTTTT (all resistant and sensitive biotypes); experiment: Greenhouse test, PE application, mean over all resistant and sensitive biotypes; format: in vivo; details: (A) 12.5, (B) 20, mixture 12.5 + 20 g of AS/ha; for TTTTT resistant mean (effect): mean of resistant biotypes (n = 16); for TTTTT sensitive mean (effect): mean of sensitive biotypes (n = 11)
Text: as §1, §2, §3, §4, §5, §6

ERICA = experiment: Greenhouse test, post-emergence (PO) application, foliar effect; format: in vivo, Erigeron canadensis; details: (A) 50, (B) 20, mixture 50 + 20 g of AS/ha, 3 weeks after application
Text: as §1, §2, §3, §4, §5, §6

EPHHL [8] = experiment: as above; format: in vivo, Euphorbia heterophylla; details: (A) 50, (B) 20, mixture 50 + 20 g of AS/ha, 3 weeks after application
Text: as §1, §2, §3, §4, §5, §6

KCHSC = experiment: as above; format: in vivo, Kochia scoparia; details: (A) 50, (B) 20, mixture 50 + 20 g of AS/ha, 3 weeks after application
Text: as §1, §2, §3, §4, §5, §6

BIDSU = experiment: as above; format: in vivo, Bidens subalternans; details: BIDSU sensitive, (A) 50, (B) 20, mixture 50 + 20 g of AS/ha, 3 weeks after application
Text: as §1, §2, §3, §4, §5, §6

APESV = experiment: Greenhouse test, pre-emergence (PE) soil application; format: in vivo, Apera spica-venti; set-up: key: % effect: 0 = no effect, 100 = full effect vs untreated
Text: as §1, §2, §3, §4, §5, §6

[9] = group (B) compound alone, 20 g of AS/ha
[10] = BRODI resistant - group A (TSR), B (NTR) and G (NTR)
[11] = AMATA resistant - group B (TSR), C1 (TSR)
[12] = ERICA resistant - group B (NA) and G (NTR)
[13] = EPHHL resistant - group B (TSR) and G (NTR)
[14] = EPHHL resistant - group B (TSR)
[15] = KCHSC resistant - group B (TSR)

Compound	foliar effect (BRODI [3]; [10]) [%]	foliar effect (BRODI [3]; BRODI sensitive) [%]	TTTTT resistant mean (effect) [4] [%]	TTTTT sensitive mean (effect) [4] [%]	foliar effect (AMAPA) [%]	foliar effect (AMATA [6]; [11]) [%]	foliar effect (AMATA [6]; AMATA sensitive) [%]	TTTTT resistant mean (effect) [7] [%]	TTTTT sensitive mean (effect) [7] [%]	foliar effect (ERICA; [12]) [%]	foliar effect (ERICA; ERICA sensitive) [%]	foliar effect (EPHHL [8]; [13]) [%]	foliar effect (EPHHL [8]; [14]) [%]	foliar effect (EPHHL [8]; EPHHL sensitive) [%]	foliar effect (KCHSC; [15]) [%]	foliar effect (KCHSC; KCHSC sensitive) [%]	foliar effect (BIDSU) [%]	further results
CCS(=O)(=O)c1cccnc1S(=O)(=O)NC(=O)Nc1nc(OC)cc(OC)n1 [(B3), rimsulfuron]	75	100	46	88	70	90	70	24	75	60	90	50	60	80	0	90	70	effect on BRODI resistant - group A (TSR), B (NTR) and G (NTR) (BRODI [1]; [9]): 70; effect on BRODI sensitive (BRODI [1]; [9]): 80; effect on EPHHL resistant - group B (TSR) (EPHHL [2]; [9]): 0; effect on EPHHL resistant - group B (TSR) and G (NTR) (EPHHL [2]; [9]): 0; effect on EPHHL sensitive (EPHHL [2]; [9]): 30; effect on ERIBO resistant - group B (NA) and G (NTR) (ERIBO; [9]): 0; effect on ERIBO sensitive (ERIBO; [9]): 70; effect on AMATA sensitive (AMATA [5]; [9]): 70; effect on LOLSS resistant - group G (NTR) (LOLSS; [9]): 60; effect on LOLSS resistant group A (TSR, NTR), B (NTR) and C2 (NA) (LOLSS; [9]): 50; effect on LOLSS resistant group A (TSR, NTR), B (TSR, NTR) and C2 (NA) (LOLSS; [9]): 50; effect on LOLSS sensitive (LOLSS; [9]): 70; effect on APESV resistant - group B (TSR, NTR) and K1/3 (NA) (APESV; [9]): 35; effect on APESV sensitive (APESV; [9]): 93
Cc1ccc2c(c1)[C@H](Nc1nc(N)nc(C(C)F)n1)[C@@H](C)C2 (stereo partly drawn) [(A), indaziflam]	65	70	53	58	50	40	50	52	68	50	50	50	55	60	30	30	40	effect on BRODI resistant - group A (TSR), B (NTR) and G (NTR) (BRODI [1]; (A) alone, 12.5 g of AS/ha): 70; effect on BRODI sensitive (BRODI [1]; (A) alone, 12.5 g of AS/ha): 75; effect on EPHHL resistant - group B (TSR) (EPHHL [2]; (A) alone, 12.5 g of AS/ha): 0; effect on EPHHL resistant - group B (TSR) and G (NTR) (EPHHL [2]; (A) alone, 12.5 g of AS/ha): 0; effect on EPHHL sensitive (EPHHL [2]; (A) alone, 12.5 g of AS/ha): 50; effect on ERIBO resistant - group B (NA) and G (NTR) (ERIBO; (A) alone, 12.5 g of AS/ha): 60; effect on ERIBO sensitive (ERIBO; (A) alone, 12.5 g of AS/ha): 70; effect on AMATA resistant - group B (TSR), C1 (TSR) (AMATA [5]; (A) alone, 12.5 g of AS/ha): 70; effect on AMATA sensitive (AMATA [5]; (A) alone, 12.5 g of AS/ha): 70; effect on LOLSS resistant - group G (NTR) (LOLSS; (A) alone, 12.5 g of AS/ha): 75; effect on LOLSS resistant group A (TSR, NTR), B (NTR) and C2 (NA) (LOLSS; (A) alone, 12.5 g of AS/ha): 50; effect on LOLSS resistant group A (TSR, NTR), B (TSR, NTR) and C2 (NA) (LOLSS; (A) alone, 12.5 g of AS/ha): 50; effect on LOLSS sensitive (LOLSS; (A) alone, 12.5 g of AS/ha): 80; effect on APESV resistant - group B (TSR, NTR) and K1/3 (NA) (APESV; (A) alone, 12.5 g of AS/ha): 70; effect on APESV sensitive (APESV; (A) alone, 12.5 g of AS/ha): 90
